Test results: publication PMC9965520, “An Efficient Peptidomics Screening for Exogenous Substrates and Inhibitory Peptides of the Dipeptidase ACE from Milk Hydrolysate” (Pharmaceutics, 2023)
Read-outs that look alike come from different tables or passages of the source. No end group written: not given here.

Experiments:
ACE [1] = target: T1, ACE (Oryctolagus cuniculus, UniProt P12822); assay: ACE inhibitory (ACEI) assay with HHL as substrate, with and without ACE pre-incubation; format: biochemical, rabbit; parameters: ACE (EC 3.4.15.1, 1 unit) from rabbit lungs; purchased Sigma Chemical Co. (St. Louis, MO, USA); host or cells: rabbit lungs (tissue-derived enzyme); details: 37 °C, HA by HPLC-UV 228 nm, mean ± SD, triplicate
T1 sequence (P12822 34-1310): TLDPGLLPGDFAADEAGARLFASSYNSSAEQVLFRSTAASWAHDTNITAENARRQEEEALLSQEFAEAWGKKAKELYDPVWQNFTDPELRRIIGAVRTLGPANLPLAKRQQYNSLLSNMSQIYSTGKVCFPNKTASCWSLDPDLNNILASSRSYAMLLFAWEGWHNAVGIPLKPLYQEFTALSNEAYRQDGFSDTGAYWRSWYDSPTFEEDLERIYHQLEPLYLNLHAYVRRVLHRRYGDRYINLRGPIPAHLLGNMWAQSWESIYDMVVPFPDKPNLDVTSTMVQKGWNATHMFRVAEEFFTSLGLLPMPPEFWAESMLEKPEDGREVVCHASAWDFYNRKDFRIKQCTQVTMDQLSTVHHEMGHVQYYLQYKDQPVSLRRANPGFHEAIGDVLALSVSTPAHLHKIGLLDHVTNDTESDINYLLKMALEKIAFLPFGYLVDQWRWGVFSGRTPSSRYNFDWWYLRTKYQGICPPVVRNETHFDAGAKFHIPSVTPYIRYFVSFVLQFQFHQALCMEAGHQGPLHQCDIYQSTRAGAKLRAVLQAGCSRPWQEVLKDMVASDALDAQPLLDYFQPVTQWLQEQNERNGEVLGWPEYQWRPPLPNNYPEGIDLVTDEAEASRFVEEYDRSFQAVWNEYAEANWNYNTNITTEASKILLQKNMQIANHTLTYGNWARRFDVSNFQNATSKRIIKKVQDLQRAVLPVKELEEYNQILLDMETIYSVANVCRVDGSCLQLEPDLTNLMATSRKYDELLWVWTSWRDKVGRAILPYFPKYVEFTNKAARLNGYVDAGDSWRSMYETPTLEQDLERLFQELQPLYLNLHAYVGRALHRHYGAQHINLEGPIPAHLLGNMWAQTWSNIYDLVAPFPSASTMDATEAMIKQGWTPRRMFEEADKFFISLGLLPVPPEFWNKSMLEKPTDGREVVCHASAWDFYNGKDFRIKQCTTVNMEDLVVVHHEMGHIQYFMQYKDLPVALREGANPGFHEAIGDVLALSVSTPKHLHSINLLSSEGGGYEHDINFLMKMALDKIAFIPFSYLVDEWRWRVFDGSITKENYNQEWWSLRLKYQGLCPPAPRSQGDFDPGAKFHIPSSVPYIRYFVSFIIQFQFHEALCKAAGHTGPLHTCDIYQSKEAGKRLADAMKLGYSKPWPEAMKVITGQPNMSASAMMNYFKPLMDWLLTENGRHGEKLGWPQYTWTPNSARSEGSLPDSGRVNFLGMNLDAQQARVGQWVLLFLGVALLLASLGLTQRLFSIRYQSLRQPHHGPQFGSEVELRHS
Protocol: The ACE inhibitory assay was performed based on the previous report with slight modification. […] The mixture was first incubated at 37 °C statically for 30 min, and then shaken at 200 rpm for another 30 min. The reaction was terminated using 60 µL of HCl (1 M). The hydrolyzed product of HHL, HA, was analyzed by HPLC (Hitachi Chromaster, Tokyo, Japan) equipped with a NUCLEODUR® C18 HTec column (4.6 mm × 250 mm; particle size 5 µm, Macherey-Nagel, Düren, Germany) and quantified by its chromatographic peak area. The mixture was separated using an isocratic elution with the solution containing 24% ACN and 0.1% TFA at a constant flow rate of 1 mL/min. The substrate and product were monitored using a UV-Vis detector at a wavelength of 228 nm. The ACEI activity (%) was calculated as shown below: ACEI activity (%) = [1 – (Ainhibitor/Ablank)] × 100% where Ainhibitor and Ablank were the resulting HA peak areas in the mixtures with and without inhibitors, respectively. Along with the peptide substrate’s ACEI activity, its IC50 value was also determined using a nonlinear regression between ACE inhibition (%), and the logarithm of inhibitor concentrations could be carried out with GraphPad Prism 5.0 (GraphPad Software, Inc., La Jolla, CA, USA).

ACE [2] = target: T1, ACE; assay: ACE hydrolysis of synthetic substrate candidates monitored by LC-MS at different incubation times; format: in vitro ADME, rabbit; parameters: ACE (EC 3.4.15.1, 1 unit) from rabbit lungs; purchased Sigma Chemical Co. (St. Louis, MO, USA); host or cells: rabbit lungs (tissue-derived enzyme); details: 37 °C; for Substrate content (%) 30min / Substrate content (%) 60min / Substrate content (%) 90min / Substrate content (%) 120min / Substrate content (%) 150min / Substrate content (%) 180min: synthetic peptide with ACE, RS% = As/(As+Ap)x100 from SIC peak areas, LC-MS
Protocol: To confirm the reactivity of the identified peptide candidates towards ACE, the synthetic peptides were individually mixed with ACE and incubated at 37 °C for 3 h. The remaining peptide substrate and the resulting product were analyzed using LC-MS/MS. Meanwhile, the degradation rate of each peptide was monitored every 30 min using LC-MS. The percentage of the remaining substrate (RS%) at each time point was calculated as As/(As + Ap) 100%. In which, As is the selective ion chromatogram (SIC) peak area of remaining substrate and Ap is the peak area of the resulting product. The RS% was further compared with the D/H ratio obtained in Section 2.4.

[3] = no ACE pre-incubation, 2.5 mM HHL, ACE 0.05 mU/µL, borate buffer, 30 min static + 30 min 200 rpm, read-out: IC50 (μM) (Regular Assay)
[4] = peptide pre-incubated with ACE, then HHL assay, read-out: IC50 (μM) (Pre-Incubation)

| Substance | IC50 (ACE [1]; [3]) [µM] | IC50 (ACE [1]; [4]) [µM] | Substrate content (%) 30min (ACE [2]) [%] | Substrate content (%) 60min (ACE [2]) [%] | Substrate content (%) 90min (ACE [2]) [%] | Substrate content (%) 120min (ACE [2]) [%] | Substrate content (%) 150min (ACE [2]) [%] | Substrate content (%) 180min (ACE [2]) [%] | Hydrolysis of synthetic peptide by ACE (result in words) (ACE [2]; synthetic peptide incubated with ACE, 3 h, LC-MS/MS) |
| --- | --- | --- | --- | --- | --- | --- | --- | --- | --- |
| AYFYPELFR [AR-9] | 6.8 ± 0.23 | 25.3 ± 0.96 | 2.40 | 1.59 | 0.00 | 0.00 | 0.00 | 0.00 | – |
| FFVAPFPEVF [FF-10] | 104 ± 2.47 | 44.6 ± 3.06 | 76.08 | 49.76 | 34.59 | 32.31 | 21.80 | 14.21 | partially hydrolyzed |
| HLPLPLLQSW [HW-10] | 10.6 ± 0.17 | 17.8 ± 0.65 | 2.47 | 0.00 | 0.00 | 0.00 | 0.00 | 0.00 | – |

Other lines, results leading:

| IC50 (ACE [1]; [3]) [µM] | IC50 (ACE [1]; [4]) [µM] | Substrate content (%) 30min (ACE [2]) [%] | Substrate content (%) 60min (ACE [2]) [%] | Substrate content (%) 90min (ACE [2]) [%] | Substrate content (%) 120min (ACE [2]) [%] | Substrate content (%) 150min (ACE [2]) [%] | Substrate content (%) 180min (ACE [2]) [%] | Hydrolysis of synthetic peptide by ACE (result in words) (ACE [2]; synthetic peptide incubated with ACE, 3 h, LC-MS/MS) | Substance |
| --- | --- | --- | --- | --- | --- | --- | --- | --- | --- |
| 12.3 ± 0.37 | 71.9 ± 2.19 | 58.04 | 37.06 | 22.61 | 11.41 | 7.12 | 6.82 | – | LHLPLPLL [LL-8] |
| 38.9 ± 2.05 | 27.3 ± 2.16 | 7.80 | 7.20 | 6.25 | 5.68 | 2.64 | 1.05 | – | LVYPFPGPIHNSL [LL-13] |
| 250 ± 7.9 | 189 ± 9.6 | 8.35 | 7.02 | 6.54 | 6.41 | 6.27 | 5.83 | – | YVPLGTQ [YQ-7] |
